Reference: ChEMBL document CHEMBL4004803, “Syntheses and antibacterial activity of soluble 9-bromo substituted indolizinoquinoline-5,12-dione derivatives” (Eur J Med Chem, 2017)
In brackets after ≈: the same amount, converted by molar mass.

Columns and labels:
Staphylococcus aureus [1] = experiment: Antibacterial activity against methicillin-resistant Staphylococcus aureus 1029025 clinical isolate after 20 to 24 hrs by two-fold microdilution method; assay type: functional
Staphylococcus aureus [2] = experiment: Antibacterial activity against methicillin-resistant Staphylococcus aureus clinical isolate after 20 to 24 hrs by two-fold microdilution method; assay type: functional
Staphylococcus aureus [3] = experiment: Antibacterial activity against methicillin-resistant Staphylococcus aureus 1024010 clinical isolate after 20 to 24 hrs by two-fold microdilution method; assay type: functional
Staphylococcus aureus [4] = experiment: Antibacterial activity against methicillin-resistant Staphylococcus aureus 10844 clinical isolate after 20 to 24 hrs by two-fold microdilution method; assay type: functional
Staphylococcus aureus [5] = experiment: Antibacterial activity against methicillin-resistant Staphylococcus aureus 111423 clinical isolate after 20 to 24 hrs by two-fold microdilution method; assay type: functional
Staphylococcus aureus [6] = experiment: Antibacterial activity against methicillin-resistant Staphylococcus aureus 625032 clinical isolate after 20 to 24 hrs by two-fold microdilution method; assay type: functional
Staphylococcus aureus [7] = experiment: Antibacterial activity against methicillin-resistant Staphylococcus aureus 814039 clinical isolate after 20 to 24 hrs by two-fold microdilution method; assay type: functional
Staphylococcus aureus [8] = experiment: Antibacterial activity against methicillin-resistant Staphylococcus aureus 103054 clinical isolate after 20 to 24 hrs by two-fold microdilution method; assay type: functional
Staphylococcus aureus [9] = experiment: Antibacterial activity against methicillin-resistant Staphylococcus aureus 102849 clinical isolate after 20 to 24 hrs by two-fold microdilution method; assay type: functional
Staphylococcus aureus [10] = experiment: Antibacterial activity against methicillin-resistant Staphylococcus aureus 912014 clinical isolate after 20 to 24 hrs by two-fold microdilution method; assay type: functional
Staphylococcus aureus [11] = experiment: Antibacterial activity against methicillin-resistant Staphylococcus aureus 20339 clinical isolate after 20 to 24 hrs by two-fold microdilution method; assay type: functional
Staphylococcus aureus [12] = experiment: Antibacterial activity against methicillin-resistant Staphylococcus aureus 519028 clinical isolate after 20 to 24 hrs by two-fold microdilution method; assay type: functional
Staphylococcus aureus [13] = experiment: Antibacterial activity against methicillin-resistant Staphylococcus aureus 110328-1 clinical isolate after 20 to 24 hrs by two-fold microdilution method; assay type: functional
Staphylococcus aureus [14] = experiment: Antibacterial activity against methicillin-resistant Staphylococcus aureus 110834 clinical isolate after 20 to 24 hrs by two-fold microdilution method; assay type: functional
Staphylococcus aureus [15] = experiment: Antibacterial activity against methicillin-resistant Staphylococcus aureus 305026 clinical isolate after 20 to 24 hrs by two-fold microdilution method; assay type: functional
Staphylococcus aureus [16] = experiment: Antibacterial activity against methicillin-resistant Staphylococcus aureus 202045 clinical isolate after 20 to 24 hrs by two-fold microdilution method; assay type: functional
Staphylococcus aureus [17] = experiment: Antibacterial activity against methicillin-resistant Staphylococcus aureus 121969 clinical isolate after 20 to 24 hrs by two-fold microdilution method; assay type: functional
Staphylococcus aureus [18] = experiment: Antibacterial activity against methicillin-resistant Staphylococcus aureus 110432 clinical isolate after 20 to 24 hrs by two-fold microdilution method; assay type: functional
Staphylococcus aureus [19] = experiment: Antibacterial activity against methicillin-resistant Staphylococcus aureus 1216052 clinical isolate after 20 to 24 hrs by two-fold microdilution method; assay type: functional
Staphylococcus aureus [20] = experiment: Antibacterial activity against methicillin-resistant Staphylococcus aureus 1212221 clinical isolate after 20 to 24 hrs by two-fold microdilution method; assay type: functional
Staphylococcus aureus [21] = experiment: Antibacterial activity against methicillin-resistant Staphylococcus aureus 1214023 clinical isolate after 20 to 24 hrs by two-fold microdilution method; assay type: functional
Staphylococcus aureus [22] = experiment: Antibacterial activity against methicillin-resistant Staphylococcus aureus 316038 clinical isolate after 20 to 24 hrs by two-fold microdilution method; assay type: functional
Staphylococcus aureus [23] = experiment: Antibacterial activity against methicillin-resistant Staphylococcus aureus 214026 clinical isolate after 20 to 24 hrs by two-fold microdilution method; assay type: functional
Staphylococcus aureus [24] = experiment: Antibacterial activity against methicillin-resistant Staphylococcus aureus 20534 clinical isolate after 20 to 24 hrs by two-fold microdilution method; assay type: functional
Staphylococcus aureus [25] = experiment: Antibacterial activity against methicillin-resistant Staphylococcus aureus 1025022 clinical isolate after 20 to 24 hrs by two-fold microdilution method; assay type: functional
Staphylococcus aureus [26] = experiment: Antibacterial activity against methicillin-resistant Staphylococcus aureus 502025 clinical isolate after 20 to 24 hrs by two-fold microdilution method; assay type: functional
Staphylococcus aureus [27] = experiment: Antibacterial activity against methicillin-resistant Staphylococcus aureus 11703 clinical isolate after 20 to 24 hrs by two-fold microdilution method; assay type: functional
Staphylococcus aureus [28] = experiment: Antibacterial activity against methicillin-resistant Staphylococcus aureus 109016 clinical isolate after 20 to 24 hrs by two-fold microdilution method; assay type: functional
Staphylococcus aureus [29] = experiment: Antibacterial activity against methicillin-resistant Staphylococcus aureus 224001 clinical isolate after 20 to 24 hrs by two-fold microdilution method; assay type: functional
Staphylococcus aureus [30] = experiment: Antibacterial activity against methicillin-resistant Staphylococcus aureus 110325 clinical isolate after 20 to 24 hrs by two-fold microdilution method; assay type: functional
Staphylococcus aureus [31] = experiment: Antibacterial activity against methicillin-resistant Staphylococcus aureus 123152 clinical isolate after 20 to 24 hrs by two-fold microdilution method; assay type: functional
Staphylococcus aureus [32] = experiment: Antibacterial activity against methicillin-resistant Staphylococcus aureus GLH15 clinical isolate after 20 to 24 hrs by two-fold microdilution method; assay type: functional
Staphylococcus aureus [33] = experiment: Antibacterial activity against methicillin-resistant Staphylococcus aureus 1212057-1 clinical isolate after 20 to 24 hrs by two-fold microdilution method; assay type: functional
Staphylococcus aureus [34] = experiment: Antibacterial activity against methicillin-resistant Staphylococcus aureus 503025 clinical isolate after 20 to 24 hrs by two-fold microdilution method; assay type: functional
Streptococcus pyogenes = experiment: Antibacterial activity against Streptococcus pyogenes ATCC 19615 after 20 to 24 hrs by two-fold microdilution method; assay type: functional
[35] = Solubility of the compound in water at 25 degC measured after shaking for 4 hrs by UV method; assay type: physicochemical; details: water
Staphylococcus aureus [36] = experiment: Antibacterial activity against methicillin-resistant Staphylococcus aureus 518036 clinical isolate after 20 to 24 hrs by two-fold microdilution method; assay type: functional
Staphylococcus aureus [37] = experiment: Antibacterial activity against methicillin-resistant Staphylococcus aureus 19950 clinical isolate after 20 to 24 hrs by two-fold microdilution method; assay type: functional
Staphylococcus aureus [38] = experiment: Antibacterial activity against methicillin-resistant Staphylococcus aureus 1207026 clinical isolate after 20 to 24 hrs by two-fold microdilution method; assay type: functional
Staphylococcus aureus [39] = experiment: Antibacterial activity against methicillin-resistant Staphylococcus aureus 1024004-2 clinical isolate after 20 to 24 hrs by two-fold microdilution method; assay type: functional
Staphylococcus aureus [40] = experiment: Antibacterial activity against methicillin-resistant Staphylococcus aureus 111625 clinical isolate after 20 to 24 hrs by two-fold microdilution method; assay type: functional
Staphylococcus aureus [41] = experiment: Antibacterial activity against methicillin-resistant Staphylococcus aureus 1111047-1 clinical isolate after 20 to 24 hrs by two-fold microdilution method; assay type: functional
Staphylococcus aureus [42] = experiment: Antibacterial activity against methicillin-resistant Staphylococcus aureus 504008 clinical isolate after 20 to 24 hrs by two-fold microdilution method; assay type: functional
Staphylococcus aureus [43] = experiment: Antibacterial activity against methicillin-resistant Staphylococcus aureus 530231 clinical isolate after 20 to 24 hrs by two-fold microdilution method; assay type: functional
Staphylococcus aureus [44] = experiment: Antibacterial activity against methicillin-resistant Staphylococcus aureus 131215 clinical isolate after 20 to 24 hrs by two-fold microdilution method; assay type: functional
Staphylococcus aureus [45] = experiment: Antibacterial activity against […] Staphylococcus aureus ATCC 25923 after 20 to 24 hrs by two-fold microdilution method; assay type: functional
Staphylococcus aureus [46] = experiment: Antibacterial activity against methicillin-resistant Staphylococcus aureus 1026211 clinical isolate after 20 to 24 hrs by two-fold microdilution method; assay type: functional

Compound: O=C1c2cccnc2C(=O)c2c1c(C(=O)OCCCCCCN1CCCCC1)c1ccc(Br)cn21
- MIC (Staphylococcus aureus [1]): 0.063 µg/mL (≈ 0.117 µM)
- MIC50 (Staphylococcus aureus [2]): 0.063 µg/mL (≈ 0.117 µM)
- MIC90 (Staphylococcus aureus [2]): 0.125 µg/mL (≈ 0.232 µM)
- MIC (Staphylococcus aureus [3]): 0.063 µg/mL (≈ 0.117 µM)
- MIC (Staphylococcus aureus [4]): 0.063 µg/mL (≈ 0.117 µM)
- MIC (Staphylococcus aureus [5]): > 16 µg/mL
- MIC (Staphylococcus aureus [6]): 0.25 µg/mL (≈ 0.464 µM)
- MIC (Staphylococcus aureus [7]): 0.25 µg/mL (≈ 0.464 µM)
- MIC (Staphylococcus aureus [8]): 0.031 µg/mL (≈ 0.0576 µM)
- MIC (Staphylococcus aureus [9]): 0.063 µg/mL (≈ 0.117 µM)
- MIC (Staphylococcus aureus [10]): 0.063 µg/mL (≈ 0.117 µM)
- MIC (Staphylococcus aureus [11]): 0.125 µg/mL (≈ 0.232 µM)
- MIC (Staphylococcus aureus [12]): 0.125 µg/mL (≈ 0.232 µM)
- MIC (Staphylococcus aureus [13]): 0.125 µg/mL (≈ 0.232 µM)
- MIC (Staphylococcus aureus [14]): 0.063 µg/mL (≈ 0.117 µM)
- MIC (Staphylococcus aureus [15]): ≤ 0.0078 µg/mL
- MIC (Staphylococcus aureus [16]): ≤ 0.0078 µg/mL
- MIC (Staphylococcus aureus [17]): 0.063 µg/mL (≈ 0.117 µM)
- MIC (Staphylococcus aureus [18]): 0.063 µg/mL (≈ 0.117 µM)
- MIC (Staphylococcus aureus [19]): > 16 µg/mL
- MIC (Staphylococcus aureus [20]): 0.031 µg/mL (≈ 0.0576 µM)
- MIC (Staphylococcus aureus [21]): ≤ 0.0078 µg/mL
- MIC (Staphylococcus aureus [22]): 0.031 µg/mL (≈ 0.0576 µM)
- MIC (Staphylococcus aureus [23]): ≤ 0.0078 µg/mL
- MIC (Staphylococcus aureus [24]): 0.125 µg/mL (≈ 0.232 µM)
- MIC (Staphylococcus aureus [25]): 0.063 µg/mL (≈ 0.117 µM)
- MIC (Staphylococcus aureus [26]): 0.063 µg/mL (≈ 0.117 µM)
- MIC (Staphylococcus aureus [27]): 0.063 µg/mL (≈ 0.117 µM)
- MIC (Staphylococcus aureus [28]): 0.031 µg/mL (≈ 0.0576 µM)
- MIC (Staphylococcus aureus [29]): 0.125 µg/mL (≈ 0.232 µM)
- MIC (Staphylococcus aureus [30]): 0.031 µg/mL (≈ 0.0576 µM)
- MIC (Staphylococcus aureus [31]): 0.125 µg/mL (≈ 0.232 µM)
- MIC (Staphylococcus aureus [32]): 0.063 µg/mL (≈ 0.117 µM)
- MIC (Staphylococcus aureus [33]): 0.016 µg/mL (≈ 0.0297 µM)
- MIC (Staphylococcus aureus [34]): 0.125 µg/mL (≈ 0.232 µM)
- MIC (Streptococcus pyogenes): 2 µg/mL (≈ 3.71 µM)
- solubility thermodynamic at 4 h [35]: 1980 µg/mL (≈ 3680 µM)
- MIC (Staphylococcus aureus [36]): 0.125 µg/mL (≈ 0.232 µM)
- MIC (Staphylococcus aureus [37]): 0.063 µg/mL (≈ 0.117 µM)
- MIC (Staphylococcus aureus [38]): 0.063 µg/mL (≈ 0.117 µM)
- MIC (Staphylococcus aureus [39]): 0.063 µg/mL (≈ 0.117 µM)
- MIC (Staphylococcus aureus [40]): 0.063 µg/mL (≈ 0.117 µM)
- MIC (Staphylococcus aureus [41]): 0.25 µg/mL (≈ 0.464 µM)
- MIC (Staphylococcus aureus [42]): 0.063 µg/mL (≈ 0.117 µM)
- MIC (Staphylococcus aureus [43]): 0.125 µg/mL (≈ 0.232 µM)
- MIC (Staphylococcus aureus [44]): 0.031 µg/mL (≈ 0.0576 µM)
- MIC (Staphylococcus aureus [45]): 0.031 µg/mL (≈ 0.0576 µM)
- MIC (Staphylococcus aureus [46]): 0.063 µg/mL (≈ 0.117 µM)
